These results are taken from US20260062445A1, “PEPTIDES WITH CYTOKINE-RELEASING ACTIVITY AND METHODS FOR CHARACTERIZING CYTOKINE-RELEASING PROFILES OF PEPTIDES” (KOLIBER BIOSCIENCES INC., priority 2022, published 2026).

For this assay, the system named is expanded naïve CD4+ T cells co-cultured with PBMCs. Nature of the assay: Expanded CD4 positive T cell assay (cytokine release, ELISA). The format is cell-based, human. The following applies: for response across donors (frequency of responding wells, IL-10 and IFN-γ): three different donors expressing HLA-DRB1*1101, FIGS. 7A-7B. The text has this:
To improve the robustness of the assay and decrease the well-to-well variation, a novel assay system was developed. In effect, by expanding the naïve CD4+ T cells, the number of antigen specific T cells can be increased per well with the goal of detecting a responding well with greater frequency. To expand the naïve CD4+ T cells, the cells are first isolated from PBMCs using negative selection with antibody coated magnetic beads. The naïve CD4+ T cells are then polyclonally expanded using anti-CD3 and anti-CD28 Dynabeads. An expansion of up to 20-fold was observed. The beads were then removed, and the cells were rested for 24 hours. The expanded CD4+ T cells were then co-cultured with PBMCs at a 4:1 ratio and stimulated with peptides twice every 3 days. IL-2 helper cytokine was included. Peptides were utilized at 40 μg/mL. After two peptide stimulations, IL-10 levels in the range of 20-50 picograms […]/mL were observed as compared to 5-10 pg/mL for negative controls (vehicle only) (see FIG. 3C).
PBMCs were isolated from healthy HLA typed donors of different ages, ethnicities, and genders. […] 100 million PBMC were thawed into media (Rosewell Park Memorial Institute (RPMI) 1640 medium, 10% fetal bovine serum (FBS) Heat Inactivated, 1% Penicillin-Streptomycin) and rested at 37° C., 5% CO2 overnight.
Naïve CD4+ T cells are isolated from rested PBMC using the BioLegend MojoSort™ Human CD4 T Cell Isolation Kit. Isolated T cells were counted and cultured at a density of 1×10^6 cells/mL of media with 30 units per milliliter (U/mL) of IL-2. T cells were activated and expanded using ThermoFisher Dynabeads™ Human T-Activator CD3/CD28. Beads were added at a 1:1 bead-to-cell ratio. T cells are incubated at 37° C., 5% CO2 for approximately 1 week, splitting in order to maintain the 1×10^6 cells/mL seeding density and with the addition of fresh media. T cells often saw a 20- to 30-fold expansion.
Expansion beads were magnetically removed from the T cell culture. Remaining T cells were cultured at 1×10^6 cells/mL in media and the IL-2 level was dropped to 10 units/milliliter (U/mL). T cells are rested 24 hours. Meanwhile, another vial of PBMC of the same donor was thawed and similarly rested overnight in media. 1 million expanded T cells and 0.25 million PBMC were cocultured in 1 mL of media containing 10 U/mL IL-2 in 24 well plates. Each well was stimulated with 40 μg of peptide with at least 6 well replicates for each peptide. Sterile water with 10% DMSO was used as a negative control. Plates were incubated at 37° C., 5% CO2 for 3 days. After 3 days, supernatants of each well were collected into Eppendorf tubes and frozen. Cells were resuspended in fresh media containing 10 U/mL IL-2. Cells were restimulated with 40 μg of peptide in the same format. Plates were incubated for another 3 days (see FIG. 2). Supernatants were collected after the second stimulation and cell culture was terminated.
IL-10 and IFN-γ cytokine concentrations were determined for samples. 96-well microwell plates were coated with capture antibody and incubated overnight at 4° C. Frozen supernatants were thawed and assayed using ELISA MAX™ Deluxe kits.
To quantify the number of responding wells for each peptide, a one sample t-test was utilized where signal from each well was compared against the distribution of negative wells from vehicle only controls. The negative distribution was normal (based on Shapiro Wilk test). […] As such, for each peptide, a fraction of responding wells was derived. The fraction of responding wells after the first and second peptide stimulations in the expanded CD4+ T cell assay are shown in FIGS. 5A-5D. Moreover, the fraction of responding wells was further subjected to the statistical test for proportions which takes into account the sample size.

In the case of FAVPAKQAKKTLT [KBP82], the “response across donors (frequency of responding wells, IL-10 and IFN-γ)” value (shortened to “response across donors”) is reported as “respond across donors”. Besides, the IFN-γ release result (peptide 40 μg/mL, FIGS. 5A-5D) was “minimal levels”. For the same substance, the “specificity for IL-10 production vs IFN-γ” value (three different donors expressing HLA-DRB1*1101) is “high specificity”.

For KLAKRLLLSMNQ [KBP63], the “response across donors” value is “respond across donors”.

With “Keyhole limpet haemocyanin [KLH, reference compound]”, the IFN-γ signal came to 150 pg/mL (upon double stimulation) and 80 pg/mL (upon single stimulation).

Take LALLAPKLLRRF [KBP73]: the “response across donors” value is on record as “respond across donors”.
